Assay results taken from patent US5260060A, “Fibrinolytic enzymes” (priority 1991, dated 1993).

Columns and labels:
thermolysin = target: T1, thermolysin (Bacillus thermoproteolyticus, UniProt P00800); conditions: cited from earlier work
T1 sequence (P00800 233-548): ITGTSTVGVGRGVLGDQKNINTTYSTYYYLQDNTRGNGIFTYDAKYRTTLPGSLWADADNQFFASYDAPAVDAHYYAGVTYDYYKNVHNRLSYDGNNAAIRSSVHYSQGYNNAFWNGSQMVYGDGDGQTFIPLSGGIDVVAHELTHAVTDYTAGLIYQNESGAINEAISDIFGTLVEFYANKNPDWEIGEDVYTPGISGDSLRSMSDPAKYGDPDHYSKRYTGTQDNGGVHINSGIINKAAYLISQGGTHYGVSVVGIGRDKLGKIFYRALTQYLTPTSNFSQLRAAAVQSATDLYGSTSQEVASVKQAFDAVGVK

Accfib = Accfib (Agkistrodon contortrix contortrix, UniProt P28891); assay: biochemical
Sequence of Accfib (P28891 whole entry, looked up): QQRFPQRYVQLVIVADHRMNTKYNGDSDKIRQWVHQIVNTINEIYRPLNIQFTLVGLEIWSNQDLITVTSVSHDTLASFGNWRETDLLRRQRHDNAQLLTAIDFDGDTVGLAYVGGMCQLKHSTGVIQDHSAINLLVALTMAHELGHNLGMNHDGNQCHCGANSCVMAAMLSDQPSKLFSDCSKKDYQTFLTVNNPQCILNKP

CC(C)CC(C(=O)NO)C(=O)N[C@@H](C)C(=O)NCC(N)=O (stereo partly drawn) [Zincov, 2-(N-hydroxycarboxamido)-4-methylpentanoyl-L-alanyl-glycine amide]
Ki (thermolysin): 480 nM
Ki (Accfib): 16 mM
